The values below come from patent publication US20100075926A1, “ACTIVATION OF HISTONE DEACETYLASE 1 (HDAC1) PROTECTS AGAINST DNA DAMAGE AND INCREASES NEURONAL SURVIVAL” (priority 2008, published 2010).

Common to all, as to assay type: biochemical
Details in all cases: at the indicated concentration (8-40 μM); avg. n = 2; relative to DMSO

The target in one assay is T1, recombinant human HDAC8 (Homo sapiens, UniProt Q9BY41).
T1 sequence (Q9BY41 1-377): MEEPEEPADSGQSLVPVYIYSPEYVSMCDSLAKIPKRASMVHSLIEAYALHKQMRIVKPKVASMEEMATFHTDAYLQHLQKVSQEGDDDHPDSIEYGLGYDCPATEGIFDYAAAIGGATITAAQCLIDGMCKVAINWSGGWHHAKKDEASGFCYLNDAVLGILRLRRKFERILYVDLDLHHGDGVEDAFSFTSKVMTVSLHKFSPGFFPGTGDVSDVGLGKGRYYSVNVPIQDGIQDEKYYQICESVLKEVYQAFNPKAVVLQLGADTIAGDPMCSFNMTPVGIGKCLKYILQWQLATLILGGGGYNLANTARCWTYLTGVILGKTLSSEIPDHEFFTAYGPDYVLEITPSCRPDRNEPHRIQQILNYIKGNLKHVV
Briefly: Caliper mobility shift deacetylase assay, HDAC8. Here is the method:
(§1) To identify small molecule activators of HDAC1, a diverse collection of 1,760 small molecules composed of synthetic compounds, natural products, and a subset of FDA approved drugs were arrayed in 384-well plates as ˜10 mM dimethylsulphoxide (DMSO) stocks. To identify modulators (both activators and inhibitors) of HDACs, a fluorescence-based assay that utilizes Caliper's mobility shift assay technology (Hopkinton, Mass.) was used. This assay is based on the electrophoretic separation of N-acetyl lysine peptide substrate from the deacetylated product, which bears an additional positive charge. […] The product and substrate in each independent reaction were separated using a microfluidic chip (Caliper Life Sciences) run on a Caliper LC3000 (Caliper Life Sciences). The product and substrate fluorophore were excited at 488 nm and detected at 530 nm. Substrate conversion was calculated from the electrophoregram using HTS Well Analyzer software (Caliper Life Sciences). Since the amount of converted substrate is measured, and the reactions were performed at the Km for each enzyme, it is possible to identify both inhibitors and activators of HDACs using this assay.
(§2) Using the mobility shift assay, all compounds were screened in duplicate using a panel of class I and class II HDACs and a N-acetyl lysine peptide substrate. For class I HDACs, HDAC1, HDAC2, and HDAC8 were used. For class IIb HDACs, HDAC6 and to HDAC10 were used. Compounds were incubated for 18-24 hrs and the percent inhibition (avg. n=2) relative to a solvent (DMSO) control treatment of each compound determined through measurement of substrate conversion.

For another assay, the target named is T2, recombinant human HDAC10 (Homo sapiens, UniProt Q969S8).
T2 sequence (Q969S8 1-669): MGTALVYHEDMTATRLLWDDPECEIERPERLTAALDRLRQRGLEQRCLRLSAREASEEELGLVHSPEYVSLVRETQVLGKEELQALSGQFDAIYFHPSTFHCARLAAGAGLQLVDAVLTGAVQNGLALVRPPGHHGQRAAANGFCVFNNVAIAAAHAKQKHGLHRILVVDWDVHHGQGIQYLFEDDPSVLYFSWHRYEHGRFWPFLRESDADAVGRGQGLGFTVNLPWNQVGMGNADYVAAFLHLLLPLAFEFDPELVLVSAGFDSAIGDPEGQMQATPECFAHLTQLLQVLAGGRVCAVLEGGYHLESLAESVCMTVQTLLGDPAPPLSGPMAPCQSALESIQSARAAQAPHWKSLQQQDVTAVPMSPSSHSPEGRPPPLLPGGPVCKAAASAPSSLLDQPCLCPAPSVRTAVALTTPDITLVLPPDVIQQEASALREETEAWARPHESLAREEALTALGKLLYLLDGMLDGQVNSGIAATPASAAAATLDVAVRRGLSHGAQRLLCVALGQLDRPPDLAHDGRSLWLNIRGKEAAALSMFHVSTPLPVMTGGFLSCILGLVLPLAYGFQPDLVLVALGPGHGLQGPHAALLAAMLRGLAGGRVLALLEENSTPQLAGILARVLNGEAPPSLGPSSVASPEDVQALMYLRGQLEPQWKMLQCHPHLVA
Briefly: Caliper mobility shift deacetylase assay, HDAC10. Here is the method:
as §1, §2

Another assay deals with T3, recombinant human HDAC6 (Homo sapiens, UniProt Q9UBN7).
T3 sequence (Q9UBN7 1-1215): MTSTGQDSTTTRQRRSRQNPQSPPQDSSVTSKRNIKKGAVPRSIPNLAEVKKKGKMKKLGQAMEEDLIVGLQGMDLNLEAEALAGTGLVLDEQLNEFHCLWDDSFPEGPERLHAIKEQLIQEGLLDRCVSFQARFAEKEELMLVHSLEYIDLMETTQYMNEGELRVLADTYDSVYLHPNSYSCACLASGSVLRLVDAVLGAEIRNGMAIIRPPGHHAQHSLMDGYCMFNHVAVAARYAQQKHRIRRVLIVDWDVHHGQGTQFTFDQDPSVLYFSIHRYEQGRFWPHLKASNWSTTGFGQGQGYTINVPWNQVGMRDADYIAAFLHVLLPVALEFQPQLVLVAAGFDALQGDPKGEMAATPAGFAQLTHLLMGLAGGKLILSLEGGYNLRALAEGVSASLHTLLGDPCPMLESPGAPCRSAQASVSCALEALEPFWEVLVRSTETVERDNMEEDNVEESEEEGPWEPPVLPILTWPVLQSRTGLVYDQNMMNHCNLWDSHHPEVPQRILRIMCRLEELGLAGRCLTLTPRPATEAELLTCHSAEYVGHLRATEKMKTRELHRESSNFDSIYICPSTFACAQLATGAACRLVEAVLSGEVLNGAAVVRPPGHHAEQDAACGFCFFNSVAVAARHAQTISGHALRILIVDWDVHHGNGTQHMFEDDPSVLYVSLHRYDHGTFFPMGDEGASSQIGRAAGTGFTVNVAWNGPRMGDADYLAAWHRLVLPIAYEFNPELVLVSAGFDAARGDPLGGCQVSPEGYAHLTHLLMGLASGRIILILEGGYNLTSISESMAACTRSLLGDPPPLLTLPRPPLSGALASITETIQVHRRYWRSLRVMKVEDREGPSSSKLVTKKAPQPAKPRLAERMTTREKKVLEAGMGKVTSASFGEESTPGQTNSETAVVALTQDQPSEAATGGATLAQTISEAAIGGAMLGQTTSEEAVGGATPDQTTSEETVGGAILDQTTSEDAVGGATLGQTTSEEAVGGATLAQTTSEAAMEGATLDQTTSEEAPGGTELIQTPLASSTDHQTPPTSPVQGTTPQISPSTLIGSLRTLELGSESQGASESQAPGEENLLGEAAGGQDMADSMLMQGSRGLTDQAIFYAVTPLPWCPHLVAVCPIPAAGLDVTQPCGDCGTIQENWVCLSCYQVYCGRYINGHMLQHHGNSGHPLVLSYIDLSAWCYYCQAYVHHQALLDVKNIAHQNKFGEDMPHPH
Briefly: Caliper mobility shift deacetylase assay, HDAC6. The procedure: as §1, §2

For a further assay, the target named is T4, recombinant human HDAC1 (Homo sapiens, UniProt Q13547).
T4 construct: purchased BPS Biosciences
Briefly: Caliper mobility shift deacetylase assay, HDAC1.
From the text: (§3) Values indicate % deacetylase inhibition (avg. n=2) relative to a solvent (DMSO) control treatment measured using recombinant human HDAC1 or HDAC2 and Caliper's mobility shift assay technology. Circle color corresponds to compounds shaded by degree of HDAC1 activity (red, decreased; blue, increased). (A) Complete dataset with box outlined with the red dashes corresponding to the region shown highlighted in (B), which in the assay corresponds to negative inhibition.
as §1
(§4) Using the mobility shift assay, all compounds were screened in duplicate using a panel of class I and class II HDACs and a N-acetyl lysine peptide substrate. For class I HDACs, HDAC1, HDAC2, and HDAC8 were used. For class IIb HDACs, HDAC6 and to HDAC10 were used. Compounds were incubated for 18-24 hrs and the percent inhibition (avg. n=2) relative to a solvent (DMSO) control treatment of each compound determined through measurement of substrate conversion. […] FIG. 11 provides a list of all of the structures that activated HDAC1 by a value of 5% or greater.

For a further assay, the target named is T5, recombinant human HDAC2 (Homo sapiens, UniProt Q92769).
T5 construct: purchased BPS Biosciences
Briefly: Caliper mobility shift deacetylase assay, HDAC2.
From the text: as §3, §1, §4

T5 sequence (Q92769 whole entry): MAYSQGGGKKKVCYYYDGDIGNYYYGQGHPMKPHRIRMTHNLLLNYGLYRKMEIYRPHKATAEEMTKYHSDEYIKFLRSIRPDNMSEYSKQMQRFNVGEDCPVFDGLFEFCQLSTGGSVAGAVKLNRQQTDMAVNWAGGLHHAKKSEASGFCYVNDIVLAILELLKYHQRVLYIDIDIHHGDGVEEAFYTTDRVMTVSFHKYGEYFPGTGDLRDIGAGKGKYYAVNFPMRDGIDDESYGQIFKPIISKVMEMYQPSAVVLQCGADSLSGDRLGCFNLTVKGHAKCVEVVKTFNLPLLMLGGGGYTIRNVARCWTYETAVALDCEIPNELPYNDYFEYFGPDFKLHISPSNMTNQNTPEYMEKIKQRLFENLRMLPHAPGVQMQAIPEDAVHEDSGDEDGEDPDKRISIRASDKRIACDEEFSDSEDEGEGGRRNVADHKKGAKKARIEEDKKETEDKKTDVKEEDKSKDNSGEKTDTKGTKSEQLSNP
T4 sequence (Q13547 whole entry): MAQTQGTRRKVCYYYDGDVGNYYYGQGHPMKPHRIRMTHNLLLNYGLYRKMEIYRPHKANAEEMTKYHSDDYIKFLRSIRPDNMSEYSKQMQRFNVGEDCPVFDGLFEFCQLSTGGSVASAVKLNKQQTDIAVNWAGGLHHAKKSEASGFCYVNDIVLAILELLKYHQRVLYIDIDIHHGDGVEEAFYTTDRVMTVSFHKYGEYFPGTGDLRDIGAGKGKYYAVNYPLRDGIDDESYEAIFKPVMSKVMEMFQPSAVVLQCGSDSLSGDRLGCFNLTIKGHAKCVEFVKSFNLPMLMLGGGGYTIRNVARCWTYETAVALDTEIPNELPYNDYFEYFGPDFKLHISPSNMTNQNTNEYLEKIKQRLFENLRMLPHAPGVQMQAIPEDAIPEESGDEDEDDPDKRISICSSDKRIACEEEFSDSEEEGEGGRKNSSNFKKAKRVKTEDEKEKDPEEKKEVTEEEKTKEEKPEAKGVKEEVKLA

Regarding `CC(C)=CCC[C@]1(C)C=Cc2c(O)c3c(c(CC=C(C)C)c2O1)O[C@]12C(=C[C@@H]4C[C@H]1C(C)(C)O[C@@]2(C/C=C(/C)C(=O)O)C4=O)C3=O` [gambogic acid], the “HDAC8 % activation of deacetylase activity” value (“HDAC8 % activation” for short) at recombinant human HDAC8 is recorded as −8%. The “HDAC10 % activation of deacetylase activity” value (from here on “HDAC10 % activation”) on recombinant human HDAC10 is recorded as 13%. For the same molecule, the “HDAC6 % activation of deacetylase activity” value (shortened to “HDAC6 % activation”) at recombinant human HDAC6 is −63%. The “HDAC1 % activation of deacetylase activity” value (shortened to “HDAC1 % activation”) on recombinant human HDAC1 was 22%. Further, the “HDAC2 % activation of deacetylase activity” value (shortened to “HDAC2 % activation”) on recombinant human HDAC2 is listed as −5%.

Turning to `COC(=O)[C@H]1[C@H]2C[C@H]3c4[nH]c5ccccc5c4CCN3C[C@H]2CC[C@@H]1O` [alpha-yohimbine], the “HDAC8 % activation” value at recombinant human HDAC8 is on record as 0%. The “HDAC10 % activation” value on recombinant human HDAC10 was found to be 1%. The “HDAC6 % activation” value on recombinant human HDAC6 was −2%. The “HDAC1 % activation” value at recombinant human HDAC1 is reported as 5%. The “HDAC2 % activation” value on recombinant human HDAC2 is −5%.

In the case of tetrahydrogamboic acid, the “HDAC8 % activation” value on recombinant human HDAC8 is recorded as −1%. Besides, the “HDAC10 % activation” value on recombinant human HDAC10 was determined as 13%. Besides, the “HDAC6 % activation” value at recombinant human HDAC6 is on record as −10%. Moreover, at recombinant human HDAC1, the “HDAC1 % activation” value is on record as 11%. Besides, the “HDAC2 % activation” value at recombinant human HDAC2 was −6%.

With `O=c1c(O)cc([C@H]2Oc3cc(O)cc(O)c3C[C@H]2O)cc2c([C@H]3Oc4cc(O)cc(O)c4C[C@H]3O)cc(O)c(O)c12` [theaflavin], the “HDAC8 % activation” value at recombinant human HDAC8 is on record as −10%. Further, the “HDAC10 % activation” value on recombinant human HDAC10 came to 0%. The “HDAC6 % activation” value at recombinant human HDAC6 is given as −79%. Besides, the “HDAC1 % activation” value at recombinant human HDAC1 is reported as 5%. The “HDAC2 % activation” value at recombinant human HDAC2 is given as −8%.

As for `CC1=NN(c2ccc(Br)cc2Br)C(=O)/C1=C(/C)NCc1ccccc1` [TAM-12], the “HDAC8 % activation” value on recombinant human HDAC8 is recorded as 2%. Besides, the “HDAC10 % activation” value on recombinant human HDAC10 is −3%. The “HDAC6 % activation” value at recombinant human HDAC6 is on record as −4%. Also, at recombinant human HDAC1, the “HDAC1 % activation” value turned out to be 5%. On recombinant human HDAC2, the “HDAC2 % activation” value is given as −1%.

For `COc1ccc(-c2cc(=O)c3c(O)cc(O)c(-c4cc(-c5cc(=O)c6c(O)cc(OC)cc6o5)ccc4OC)c3o2)cc1` [sciadopitysin], the “HDAC8 % activation” value at recombinant human HDAC8 was found to be 0%. For the same molecule, on recombinant human HDAC10, the “HDAC10 % activation” value is 19%. Besides, on recombinant human HDAC6, the “HDAC6 % activation” value is −5%. The “HDAC1 % activation” value at recombinant human HDAC1 is given as 19%. Further, at recombinant human HDAC2, the “HDAC2 % activation” value was −4%.

Consider ginkgetin K [genxgetin K], for which the “HDAC8 % activation” value at recombinant human HDAC8 is listed as −3%. On recombinant human HDAC10, the “HDAC10 % activation” value is listed as 56%. Besides, the “HDAC6 % activation” value on recombinant human HDAC6 is reported as −18%. Besides, the “HDAC1 % activation” value at recombinant human HDAC1 amounted to 42%. In addition, on recombinant human HDAC2, the “HDAC2 % activation” value was −7%.

As to `CC(=O)N(O)CCCCCNC(=O)CCC(=O)N(O)CCCCCNC(=O)CCC(=O)N(O)CCCCCN` [deferoxamine], the “HDAC8 % activation” value on recombinant human HDAC8 came out at 4%. Besides, at recombinant human HDAC10, the “HDAC10 % activation” value is 2%. Besides, the “HDAC6 % activation” value at recombinant human HDAC6 was −5%. For the same molecule, on recombinant human HDAC1, the “HDAC1 % activation” value was determined as 8%. On recombinant human HDAC2, the “HDAC2 % activation” value was −3%.
